# Measurements: patent publication US20030220201A1, “Method and device for the generation of cyclopropene compounds” (priority 2002, published 2003)
# Columns and labels:
# Format in all cases: physicochemical
# [1] = Release of 1-MCP from 1-MCP/α-CD complex in water, Comparative 1 (mix every 5 min.); conditions: 50 g 0.14% complex in 250 ml water, swirling 30 seconds every 5 minutes, no pump
# Description: (§1) Fifty grams of 0.14% concentration of 1-MCP/α-CD complex in powdered form was placed into a 1000 ml beaker which also contained 250 ml of water. Into the beaker was also placed a Mini Jet® MN404 submersible pump (available from IPSD, Inc., San Diego, Calif.) which was set at a flow rate of approximately 200 liters/hour. This system was then placed into a 36 liter Plexiglas airtight chamber fitted with a septum for inserting a syringe for gas sampling. The temperature was set at 22° C.
# (§2) After the chamber was sealed, the pump was turned on, creating a fountain-type flow in the beaker. The atmosphere of the chamber was sampled periodically to monitor the release of 1-MCP. The analysis was performed by gas chromatography using a flame ionization detector.
# (§3) This procedure was repeated twice without using the pump for comparison purposes. The first comparison involved mixing the powdered suspension by swirling the contents of the beaker for 30 seconds, every 5 minutes. The second comparison involved using a 2 inch magnetic stir bar and a stir plate instead a pump to constantly mix the suspension.
# [2] = Release of 1-MCP from 1-MCP/α-CD complex in water, Comparative 2 (stir bar); conditions: 50 g 0.14% complex in 250 ml water, constant magnetic stir bar, no pump
# Description: as §1, §2, §3
# [3] = Release of 1-MCP by gas sparge, large scale, 0.14% complex (Example 3); conditions: 3400 g 0.14% complex in 11 liters water, air 400 liters/hour, 22° C.
# Description: Thirty four hundred grams of a 0.14% 1-MCP/α-CD complex in powdered form was placed into a 20 liter plastic vessel containing 11 liters of water and a 56 inch segment of a Bubble Wall air diffuser (IPSD, Inc., San Diego, Calif.). The air diffuser is hooked to a Pro Gold® Profile 400 air pump via flexible connective tubing. The pump was set at the rate of 400 liters of air/hour. The temperature was set at 22° C.
# The vessel was covered and fitted with an outlet tube through which all of the escaping air had to pass. After the pump was turned on, the air exiting the vessel was sampled periodically for 1-MCP content. Analysis was by gas chromatography using a flame detector.
# [4] = Release of 1-MCP by gas sparge, small scale (Example 2); conditions: 50 g 0.14% complex in 250 ml water, air 100 liters/hour
# Description: Fifty grams of a 0.14% 1-MCP/α-CD complex in powdered form was placed into a 600 ml beaker which contained 250 ml of water. Also present in the beaker is a 10 inch long segment of Bubble Wall air diffusers (IPSD, Inc. San Diego, Calif.). This was connected to a Tetratec® air pump (Tetra Co., Blacksburg, Va.) via flexible connective tubing. The pump was set at a rate of 100 liters/hour. This system was then placed in a 36 liter Plexiglas airtight chamber fitted with a septum for inserting a syringe for gas sampling.
# After the chamber was sealed, the pump was turned on to sparge gas through the aqueous suspension. The air in the chamber was sampled periodically to determine the rate of 1-MCP released. Analysis was performed by gas chromatography using a flame ionization detector.
# [5] = Release of 1-MCP by gas sparge, large scale, 3.3% complex, conical bottom vessel (Example 4); conditions: 182 g 3.3% complex in 8 liters water, air 204 liters/hour, 22° C.
# Description: One hundred eighty two grams of a 3.3% concentration of a 1-MCP/α-CD powder complex was placed in an 11 liter plastic vessel having a conical shaped bottom (at a 60 degree angle from horizontal). To the vessel was then added 8 liters of water. The vessel was fitted with a Kordon Mist Air® fine air diffuser (Novalek, Inc., Hayward, Calif.) hooked to a Sensidyne AP060SEEF60C1 air pump (available from Sensidyne Inc., Clearwater, Fla. which was set at a pumping rate of 204 liters of air/hour. The vessel was covered and then fitted with an outlet tube through which all of the vented air passed. The temperature was set at 22° C.
# After the pump was turned on, the exiting air was sampled periodically for 1-MCP content. Analysis was by gas chromatography using a flame ionization detector.
# [6] = Release of 1-MCP from 1-MCP/α-CD complex in water, fountain pump (Example 1); conditions: 50 g 0.14% 1-MCP/α-CD complex in 250 ml water, pump approx. 200 liters/hour, 22° C.
# Description: as §1, §2
smiles,measurement,setting,value
"CC1=CC1 [1-MCP, 1-methylcyclopropene]",Percent 1-MCP Released Comparative 1 (mix every 5 min.),[1]; Time 0.17,4%
same,Percent 1-MCP Released Comparative 1 (mix every 5 min.),[1]; Time 0.42,6%
same,Percent 1-MCP Released Comparative 1 (mix every 5 min.),[1]; Time 1.0,9%
same,Percent 1-MCP Released Comparative 1 (mix every 5 min.),[1]; Time 3.0,14%
same,Percent 1-MCP Released Comparative 1 (mix every 5 min.),[1]; Time 4.0,16%
same,Percent 1-MCP Released Comparative 1 (mix every 5 min.),[1]; Time 5.5 (hours),17%
same,Percent 1-MCP Released Comparative 2 (stir bar),[2]; Time 0.17,4%
same,Percent 1-MCP Released Comparative 2 (stir bar),[2]; Time 0.42,6%
same,Percent 1-MCP Released Comparative 2 (stir bar),[2]; Time 1.0,9%
same,Percent 1-MCP Released Comparative 2 (stir bar),[2]; Time 1.5,14%
same,Percent 1-MCP Released Comparative 2 (stir bar),[2]; Time 2.5,21%
same,Percent 1-MCP Released Comparative 2 (stir bar),[2]; Time 5.5 (hours),43%
same,Percent 1-MCP Released (gas sparge),[3]; Time 0.17 hrs.,12%
same,Percent 1-MCP Released (gas sparge),[3]; Time 0.33 hrs.,29%
same,Percent 1-MCP Released (gas sparge),[3]; Time 0.5 hrs.,48%
same,Percent 1-MCP Released (gas sparge),[3]; Time 0.75 hrs.,70%
same,Percent 1-MCP Released (gas sparge),[3]; Time 1.0 hrs.,84%
same,Percent 1-MCP Released (gas sparge),[3]; Time 1.25 hrs.,92%
same,Percent 1-MCP Released (gas sparge),[3]; Time 1.5 hrs.,96%
same,Percent 1-MCP Released (gas sparge),[3]; Time 2.0 hrs.,100%
same,Percent 1-MCP Released (gas sparge),[4]; Time 0.17 Hrs,42%
same,Percent 1-MCP Released (gas sparge),[4]; Time 0.42 Hrs,58%
same,Percent 1-MCP Released (gas sparge),[4]; Time 0.75 Hrs,75%
same,Percent 1-MCP Released (gas sparge),[4]; Time 1.0 Hrs,83%
same,Percent 1-MCP Released (gas sparge),[4]; Time 2.0 Hrs,92%
same,Percent 1-MCP Released (gas sparge),[5]; Time 1.0 hrs.,85%
same,Percent 1-MCP Released (gas sparge),[5]; Time 1.85 hrs.,100%
same,Percent 1-MCP Released Fountain Pump,[6]; Time 0.08,14%
same,Percent 1-MCP Released Fountain Pump,[6]; Time 0.17,43%
same,Percent 1-MCP Released Fountain Pump,[6]; Time 0.42,57%
same,Percent 1-MCP Released Fountain Pump,[6]; Time 1.0,79%
same,Percent 1-MCP Released Fountain Pump,[6]; Time 1.5,86%
same,Percent 1-MCP Released Fountain Pump,[6]; Time 2.5 (hours),90%
